Patent US7022675B2, “Wound healing compositions” (University of Southern California, priority 1997, dated 2006)

Key:
[1] = test system: full thickness dermal wounds; assay: in vivo wound healing assay, full thickness dermal wounds in rats; design: species or system Sprague Dawley rats; conditions: 100 μg/wound in 10% carboxymethyl cellulose, daily for first five days; measured days 2, 4, 7 and 9
Protocol: Analogs of angiotensin II and analogs of angiotensin II fragments having the structures disclosed herein were prepared using an automated peptide synthesizer and methods familiar to those having ordinary skill in the art. Each of the analogs was tested for its ability to accelerate wound healing according to the method described below. Results of procedures were used to determine the extent of wound closure at days 2, 4, 7 and 9, measured as a percentage of a vehicle-treated control wound. Since all of the analogs were not tested during the same experimental procedure, AII was included as a positive control for each group of peptides tested.
Female Sprague Dawley rats, 12 weeks old, were obtained from Simonsen Laboratories, Gilroy, Calif. On the day of surgery, the rats received intramuscular ketamine/rompum anesthesia prior to preparation for surgery. […] At days 2, 4, 7 and 9, the area of the skin wounds was measured under methoxyflurane anesthesia (commercially available as Metofane from Pittman-Moore, Mundelein, Ill.). The area of the wound was determined by (1) tracing the wound shape onto graph paper (1×1 mm squares); (2) cutting out the shape; (3) weighing the paper and comparing the weight with a 1.5×1.5 cm paper cutout; and (4) counting the number of squares. In addition, on days 2 and 4 the area of granulation tissue was similarly determined.

water intake = conditions: injected into the anterior diencephalon in the rat, Fitzsimons 1971; cited from earlier work
blood pressure [2] = conditions: intracerebroventricular infusion in the rat, concentrations 1,000 times higher than that of AII that increased blood pressure, Wright et al. 1989; cited from earlier work
rat carotid artery = conditions: cited from earlier work; for neointimal formation: similar model, Janiak et al. 1992, CGP 42112 infused perivascularly for 14 days, losartan at low doses; for reduction of intimal hyperplasia / intimal area: treatment of rats, Pratt et al. 1992
wound tissue = conditions: application to wound tissue; cited from earlier work
blood pressure [3] = conditions: cited from earlier work

In the case of Tyr-Ile-His-Pro-Phe (YIHPF) [AII(4-8)], the “wound closure relative to vehicle-treated control wounds” value [1] is listed as “not to be effective”, the “effect on water intake” value (water intake) is listed as “only a slight effect” and the “effect on blood pressure” value (blood pressure [2]) is listed as “minimal effect”.

In the case of `CCCCc1nc(Cl)c(CO)n1Cc1ccc(-c2ccccc2-c2nn[nH]n2)cc1` [losartan], the neointimal formation (rat carotid artery) is given as “ineffective” and the “reduction of intimal hyperplasia / intimal area” value (rat carotid artery) is given as 95%.

For “Asp-Arg-Val-Tyr-Ile-His-Pro-Phe (DRVYIHPF) [angiotensin II, positive control]”, the “rate of wound healing” value (wound tissue) is listed as “significantly increases”.

In the case of “AII(1-4): AII fragment (DRVY; Angiotensin 2; UniProt P01019 25-28, looked up, fragment)”, the “effect on water intake” value (water intake) is given as “only a slight effect”.

For `Cc1cc(Cn2cnc3c2C[C@@H](C(=O)O)N(C(=O)C(c2ccccc2)c2ccccc2)C3)ccc1N(C)C` [PD 123319], the “reduction of intimal hyperplasia / intimal area” value (rat carotid artery) is given as 73%.

In the case of CGP 42112, the neointimal formation (rat carotid artery) is given as “prevented neointimal formation”.

For “AII(1-7): fragment of AII (DRVYIHP; Angiotensin 2; UniProt P01019 25-31, looked up, fragment)”, the “amount needed for a comparable pressor response, relative to AII” value (blood pressure [3]; Benter et al. 1993) is given as “about 10,000 times more AII(1-7) than AII”, the “dose needed for effects on blood pressure (pressor), relative to AII” value (blood pressure [3]; depending upon the model tested and route of administration) is given as 10,000-100,000 times the dose of AII and the “effect on water intake” value (water intake) is given as “completely inactive”.

In the case of His-Pro-Phe [AII(6-8)], the “wound closure relative to vehicle-treated control wounds” value [1] was “not to be effective”.

In the case of “AII(5-8): AII fragment (IHPF; Angiotensin 2; UniProt P01019 29-32, looked up, fragment)”, the “effect on water intake” value (water intake) is given as “only a slight effect” and the “effect on blood pressure” value (blood pressure [2]) is given as “minimal effect”.
